The test system of this data set is LNCaP human prostate cancer cells. Kind of data set: LNCaP human prostate cancer xenografts in male nude nu/nu mice. The following applies: after 4 weeks of treatment, compared with other groups (group 1 saline, group 5 BCG A-3). In kind it is in vivo. How it is done:
LNCaP human prostate cancer cells are implanted subcutaneously, as xenografts, in male nude nu/nu mice. The mice are divided into 5 groups of 10 mice. On day 0, group 1 mice receive saline, group 2 mice receive 3 base SEQ ID NO:8, group 3 mice receive 6 base GT SEQ ID NO:25, group 4 mice receive 6 base AG SEQ ID NO:45 and group 5 mice receive 45 base BCG A-3 SEQ ID NO:69. After 4 weeks of treatment, the mice are sacrificed and timor mass is determined.
Background: A xenograft is tissue or cells of one species grown in another, often human tumour cells in immunodeficient mice.

In the case of GGGTGG [SEQ ID NO:25], the tumor mass result is “less tumor mass than groups 1 and 5 mice”.

For the origin of these results see patent US20070213291A1, “Therapeutically useful synthetic oligonucleotides” (priority 1999, published 2007).
